{"source": "paper PMC8686256", "about": "“DZNep promotes mouse bone defect healing via enhancing both osteogenesis and osteoclastogenesis” (Stem Cell Research & Therapy, 2021)", "assay_type_in_all_cases": "cell-based, mouse", "key": {"EZH2 and H3K27me3 [1]": {"test_system": "EZH2 and H3K27me3", "assay": "Western blotting of EZH2, H3K27me3 and GSK-3β in BMSC"}, "[2]": {"test_system": "Wnt signaling pathway-related and osteoblast-specified genes in BMSC", "assay": "qPCR of Wnt and osteoblast genes in BMSC", "method": "BMMs were cultured in 6-well plates at the density of 2 × 10^5 cells/well in α-MEM supplemented with M-CSF (30 ng/ml), RANKL (50 ng/ml). The cells were then treated with or without 25 nM DZNep for 0, 1, 3, 5 days, or with various concentrations of DZNEP (0, 6.25, 25 nM) for 5 days, or with negative control siRNA, negative control siRNA with DZNep, and Foxc1 small interfering RNA (siRNA) with DZNep for 5 days. Once the culture completed, the Axygen RNA Miniprep Kit (Axygen, Union City, CA, USA) was used to extract the total RNA. BMSC were seeded in a 6-well plate at a number of 4 × 10^5 cells/well and treated with 0, 25, 50, 100 nM of DZNep combined with osteoblast-cultured medium for 24 h, or with or without 100 nM DZNep combined with osteoblast-cultured medium for 0 and 7 days, or with negative control siRNA, negative control siRNA with DZNep, and Wnt4 small interfering RNA (siRNA) with DZNep combined with osteoblast-cultured medium for 7 days. Once the culture completed, the Axygen RNA Miniprep Kit (Axygen, Union City, CA, USA) was used to extract the total RNA. After reverse transcription to obtain cDNA from the RNA template by using the Prime Script RT reagent Kit was finished. The real-time PCR assay was subsequently performed by using the SYBR® Premix Ex Taq™ II on an ABI 7500 Sequencing Detection System (Applied Biosystems, Foster City, CA). Specifically, total volume of 10 μl liquid consisted by 5 μl of SYBR® Premix Ex Taq™ II, 1 μl of diluted cDNA, 0.4 μl of mixed forward and reverse primer, and 3.6 μl of ddH2O was added into each hole of 384 PCR plate. Conditions of the 40 cycles were: 95 °C for 5 s and 60 °C for 30 s. The melting curves and reverse transcription PCR (RT-PCR) were the methods to detect the specificity of amplification product. Each target’s quantity, run in triplicate, was normalized to Actin Beta (Actb). […]"}, "EZH2 and H3K27me3 [3]": {"test_system": "EZH2 and H3K27me3", "assay": "Western blotting of EZH2 and H3K27me3 in BMMs", "settings": "25 nM; 0, 1, 3, 5 days with RANKL, vs control", "method": "To explore the variation of the proteins on long-term activated signaling, BMMs were cultured in α-MEM containing M-CSF (30 ng/ml) and RANKL (50 ng/ml) at a density of 2 × 10^5 cells/well on 6-well plates. After 24 h, the BMMs were treated with or without 25 nM DZNep for 0, 1, 3, and 5 days, and total protein was obtained, respectively, on these specific time points. To determine the effect of DZNep on the protein of short-time activated phosphorylated, RAW264.7 cells were cultured in α-MEM at a density of 5 × 10^5 cells/well on 6-well plates. One day later, the cells were treated with the serum-free α-MEM in the presence or absence of DZNEP for 3 hand then stimulated with 50 ng/mL RANKL for 0, 10, 20, 30, and 60 min. To determine the efficiency of EZH2 shRna, BMMs were cultured in α-MEM at a density of 5 × 10^5 cells/well on 6-well plates. One day later, the cells were treated with negative control shRNA or different EZH2 shRNA for 2 days. To determine the efficiency of Foxc1 siRna, BMMs were cultured in α-MEM at a density of 5 × 10^5 cells/well on 6-well plates. […] After TBST wash for 3 times, the secondary fluorescence antibodies were incubated without light for 1 h at room temperature and the reactivity was visualized by using Odyssey V3.0 image scanning (Li-COR. Inc., Lincoln, NE, USA). […]"}}, "data": [{"smiles": "Nc1nccc2c1ncn2C1C=C(CO)C(O)C1O", "note": "(stereo not drawn) [DZNep, 3-Deazaneplanocin]", "values": [{"measurement": "EZH2 and H3k27me3 expression in BMSC", "setting": "EZH2 and H3K27me3 [1]; 0, 25, 50, 100 nM, 24 h, vs control", "value": "dose-dependent decreased"}, {"measurement": "phosphorylation level of GSK-3β", "setting": "EZH2 and H3K27me3 [1]; BMSC", "value": "no significant change"}, {"measurement": "expression of Wnt4, Wnt1, Wnt6, Wnt10a (qPCR)", "setting": "[2]; 0, 25, 50, 100 nM, 24 h", "value": "increased in a concentration-dependent manner"}, {"measurement": "expression of Wnt genes after osteoblast-cultured medium for 7 days", "setting": "[2]; 100 nM, 7 days", "value": "obviously upregulated"}, {"measurement": "expression of osteoblast-specified genes Runx2, Ocn, Opn, Col1a1", "setting": "[2]; BMSC, 100 nM 0 and 7 days, 0-100 nM 24 h", "value": "enhanced in a time-dependent and dose-dependent manner"}, {"measurement": "EZH2 and H3K27me3 expression in BMMs", "setting": "EZH2 and H3K27me3 [3]", "value": "decreased at a time manner"}]}]}
